Laboratory results: patent publication US20170189372A1, “USE OF SUBSTITUTED CHROMAN COMPOUNDS” (INSTYTUT BIOLOGII MEDYCZNEJ, priority 2014, published 2017)

Tests used:
[1] = system: reporter cell line for β-actin (EL-4 cells); test: FCC test, expanded version, β-actin reporter cell line; format: cell-based, mouse; conditions: PMA and ionomycin, 1.56 to 50 μg/ml, 50 μg/ml assumed to be 1
Method: (§1) Development of reporter cell lines was described previously (Ulleras, E., D. Trzaska, et al. (2005); “Development of the “Cell Chip”: a new in vitro alternative technique for immunotoxicity testing”, Toxicology 206(2): 245-56). Briefly, EL-4 cells were stably transfected with transgene consisting of promoter regions from mouse β-actin, interleukin-2 (IL-2), interleukin-4 (IL-4), interferon-γ (IFN-γ), and interleukin-10 (IL-10) and ORF for EGFP. Reporter cells were cultured at density 5×10^5-1×10^6 cells/ml in a humidified atmosphere with 5% CO2 at 37° C. in RPMI 1640 with Glutamax supplemented with 20% FCS and 0.5 μg/ml G418.
(§2) Compounds after primary screening were considered to be hits when FCC parameter calculated after primary screening was ≦−5000. After secondary screening area under the curve (A) of FCC parameter versus relative concentration was calculated (maximum concentration used, i.e. 50 μg/ml, was assumed to be 1). […]
(§3) Flavonoids selected after preliminary screening were undergoing FCC testing using 5 reporter cell lines: for β-actin, interleukin-2 (IL-2), interleukin-4 (IL-4), interferon-γ (IFN-γ) and interleukin-10 (IL-10). The tested concentrations were in the range from 1.56 to 50 μg/ml.
(§4) Using flow cytometry mean fluorescence intensity (columns, left Y axis) and cell viability (dots, the right Y-axis) was determined for all the experimental points and normalized relative to the control—cells incubated with medium with PMA and ionomycin. The data is the mean of the three experiments ±SEM. The statistical significance of differences between means were determined: * p<0.05, ** p<0.01, *** p<0.001 versus control. Values above the graph represent the area under the curve showing the relationship of the FCC parameter and the relative compound concentration.

[2] = system: reporter cell line for interferon-γ (EL-4 cells); test: FCC test, expanded version, IFN-γ reporter cell line; format: cell-based, mouse; conditions: PMA and ionomycin, 1.56 to 50 μg/ml, 50 μg/ml assumed to be 1
Method: as §1, §2, §3, §4

[3] = system: reporter cell line for interleukin-4 (EL-4 cells); test: FCC test, expanded version, IL-4 reporter cell line; format: cell-based, mouse; conditions: IL-4 reporter line; PMA and ionomycin; 1.56 to 50 μg/ml, 50 μg/ml assumed to be 1
Method: as §1, §2, §3, §4

[4] = system: reporter cell line for interleukin-10 (EL-4 cells); test: FCC test, expanded version, IL-10 reporter cell line; format: cell-based, mouse; conditions: IL-10 reporter line; PMA and ionomycin; 1.56 to 50 μg/ml, 50 μg/ml assumed to be 1
Method: as §1, §2, §3, §4

[5] = system: IL-2 production by Jurkat cells; test: ELISA for IL-2 in Jurkat cells; format: cell-based; conditions: Jurkat cells, PMA and ionomycin, 24 hours; for inhibition at 50 µg/mL / inhibition at 10 µg/mL: Homo sapiens
Method: Jurkat cells were seeded in 48-well plates at a concentration of 1 million/ml. Cells activated with PMA (50 ng/ml) and ionomycin (1 uM) or resting were incubated with 50 selected flavonoids in a concentration of 10 μg/ml and 50 μg/ml for 24 hours in a humidified atmosphere with 5% CO 2 at 37° C. As a control, the respective cells in the medium or in a medium with PMA and ionomycin were employed. After incubation, cells were centrifuged (8 minutes, 1300 rpm), and the cell-free supernatants were stored at −20° C. until measurements. IL-2 was assessed using a commercially available ELISA kits according to the manufacturer's instructions. Each experiment was repeated 3 times.
FCC assay and ELISA assay were repeated three times. Relative data were presented as the means±SEM. […] Statistical significance of differences observed in both assays was tested with ANOVA followed by post hoc Dunnett test using GraphPad software (La Jolla, Calif., USA). In statistical analysis non-relative data were used

[6] = system: reporter cell line for IL-2 (EL-4 cells); test: FCC primary screening with IL-2 reporter cells; format: cell-based, mouse; conditions: relative viability×(relative fluorescence−100); PMA and ionomycin activated, compound 0.4 μg/ml, 18 h
Method: as §1
When applicable, cells and reagents handling was performed by JANUS Automated Workstation (PerkinElmer, Waltham, Mass., USA). Cells were seeded at a density of 5×10^4 per well in 96-well plates. In the primary screening reporter cells for IL-2 activated with PMA (50 ng/ml) and ionomycin (1 μM) were seeded in a 96-well plate and incubated with compounds from the chemical library in a total volume of 100 μL at 37° C. in a humidified atmosphere with 5% CO2 for 18 h. Concentration of compounds was 0.4 μg/ml. The final DMSO concentration was 0.2%, DMSO is not cytotoxic towards EL-4 reporter cells at this concentration. Control samples consisted of cells in medium with 0.2% DMSO with PMA (50 ng/ml) and ionomycin (1 μM). Following incubation cells were analyzed by flow cytometry. Viability was assessed in parallel to the level of EGFP-mediated fluorescence.
Selection of compounds was based on FCC parameters calculated using the following formula:
FCC parameter=relative viability×(relative fluorescence−100)
Compounds after primary screening were considered to be hits when FCC parameter calculated after primary screening was ≦−5000. After secondary screening area under the curve (A) of FCC parameter versus relative concentration was calculated (maximum concentration used, i.e. 50 μg/ml, was assumed to be 1).

[7] = system: reporter cell line for interleukin-2 (EL-4 cells); test: FCC test, expanded version, IL-2 reporter cell line; format: cell-based, mouse; conditions: IL-2 reporter line; PMA and ionomycin; 1.56 to 50 μg/ml, 50 μg/ml assumed to be 1
Method: as §1, §2, §3, §4

Row | Compound | The area under the curve showing the relationship between the FCC parameter and compound concentration, AKT [1] | The area under the curve showing the relationship between the FCC parameter and compound concentration, IFN [2] | The area under the curve showing the relationship between the FCC parameter and compound concentration, IL-4 [3] | The area under the curve showing the relationship between the FCC parameter and compound concentration, IL-10 [4] | Inhibition of IL-2 production (ELISA) ([5]; 10 μg/ml) | inhibition at 50 µg/mL ([5]; 50 μg/ml) [%] | FCC parameter (IL-2 screening) [6] | The area under the curve showing the relationship between the FCC parameter and compound concentration, IL-2 [7] | Inhibition of IL-2 production (ELISA) ([5]; 50 μg/ml) [%] | inhibition at 10 µg/mL ([5]; 10 μg/ml) [%]
1 | COc1ccc(C2CC(=O)c3cc(O)cc(O)c3O2)cc1 (stereo not drawn) [Compound 1, 6,8-dihydroxy-2-(4-methoxyphenyl)chroman-4-one] | −622 | −1865 | −194 | −1435 | No | 97 | −8723 | −2178 |  | 
2 | CC1(C)CC2(CC(c3ccccc3)Oc3cc(O)ccc32)NC(=S)N1 (stereo not drawn) [Compound 2, Spiro[4H-1-benzopyran-4,4′(1′H)-pyrimidine]-2′(3′H)-thione, 2,3,5′,6′-tetrahydro-7-hydroxy-6′,6′-dimethyl-2-phenyl] | −1120 | −3977 | 261 | −2585 | 35% |  | −5484 | −2394 | 91 | 
3 | CC(=O)Oc1ccc(/C=C/C(=O)CC2OC(Oc3cc(OC(C)=O)c4c(c3)O[C@@H](c3ccc(OC(C)=O)cc3)CC4=O)C(OC(C)=O)C(OC(C)=O)C2OC(C)=O)cc1 (stereo partly drawn) [Compound 3, 4-(7-{6-[(3E)-4-(4-acetyloxyphenyl)-2-oxobut-3-enyl]-3,4,5-triacetyloxy(2H-3,4,5,6-tetrahydropyran-2-yloxy)}(2R)-5-acetyloxy-4-oxochroman-2-yl)phenyl acetate] | 945 | −3801 | −308 | −1509 | 64% |  | −5095 | −4581 | 68 | 
4 | CC(=O)Oc1ccc2c(c1)OC(c1ccccc1)CC21CC(C)(C)NC(=S)N1 (stereo not drawn) [Compound 4, 7-acetoksy-2,3,5′,6′-tetrahydro-6′,6′-dimetylo-2-fenylo-spiro[4H-1-benzopirano-4,4′(1′H)-pirymidyno]-2′(3′H)-tion] | −104 | −3521 | 988 | −1928 | 27% |  | −5692 | −1081 | 44 | 
5 | CC(C)=CCc1c(O)cc(O)c2c1OC(c1ccc(O)cc1)CC2=O (stereo not drawn) [Compound 5, 5,7-dihydroxy-2-(4-hydroxyphenyl)-8-(3-methylbut-2-enyl)chroman-4-one] | −979 | −4565 | −3324 | −3119 |  | 95 | −5264 | −4991 |  | 28
6 | O=C1CC(c2ccccc2O)Oc2ccc(O)cc21 (stereo not drawn) [Compound 6, 6-hydroxy-2-(2-hydroxyphenyl)chroman-4-one] | 3622 | −2999 | 367 | −179 |  | 100 | −5169 | −2227 |  | 58
7 | COc1ccc2c(c1)OC(c1cccc(OC)c1OC)CC2=O (stereo not drawn) [Compound 7, 2-(2,3-dimethoxyphenyl)-7-methoxychroman-4-one] | −1357 | −5873 | −1865 | −2889 |  | 92 | −6178 | −4104 |  | 67
8 | COc1cc(OC)c2c(c1)OC(c1ccccc1)CC2=O (stereo not drawn) [Compound 8, 5,7-dimethoxy-2-phenylchroman-4-one] | 3973 | −4396 | 2380 | −628 |  | 100 | −5788 | −2590 |  | 80
9 | COc1cccc2c1C(=O)CC(c1ccccc1)O2 (stereo not drawn) [Compound 9, 5-methoxy-2-phenylchroman-4-one] | 3861 | −4745 | 675 | −1472 |  | 92 | −5636 | −3872 |  | 43
